This note sets out measurements from patent publication US8946273B2, “S-Triazolyl alpha-mercapto acetanilides as inhibitors of HIV reverse transcriptase” (priority 2011, dated 2015).

Read-outs that look alike come from different tables or passages of the source. Bounds are passed on as bounds.

Test [1] relates to wild type HIV-1. The test can be described thus: microbe, parasite or virus in culture. The test is classed as cell-based, human immunodeficiency virus type 1 (HIV-1).
For test [2], the target named is T1, wild-type HIV reverse transcriptase (Human immunodeficiency virus type 1 group M subtype B, UniProt P04585).
T1 construct: wild-type and four mutant HIV reverse transcriptases
Kind of test: Activity on wild type reverse transcriptase (Table 1 IC50 WT). Format: biochemical. The procedure: Using similar methods as described above, 2-[5-bromo-4-(4-cyclopropylnaphthalen-1-yl)-4H-[1,2,4]triazol-3-ylsulfanyl]-N-(2-methyl-4-sulfamoylphenyeacetamide and 2-[5-bromo-4-(4-ethylnaphthalen-1-yl)-4H-[1,2,4]triazol-3-ylsulfanyl]-N-(2-chloro-4-sulfamoylphenyl)-acetamide were synthesized, as were the N-4-carbamyl analog, 2-[5-bromo-4-(4-ethyl-naphthalen-1-yl)-4H-[1,2,4]triazol-3-ylsulfanyl]-N-(2-chloro-4-carbamoylphenyl)-acetamide and the N-4-carboxyl analog. Each of the compounds was tested against a panel of mutant HIV reverse transcriptases, including 20 of the 22 of the mutants that are found in about 2% or more of the patient samples that are resistant to the most widely used non-nucleoside HIV-RT inhibitor efavirenz ((4S)-6-chloro-4-(cyclopropylethynyl)-1,4-dihydro-4-(trifluoromethyl)-2H-3,1-benzoxazin-2-one). […] In most cases both criteria were met. […] […].
Compounds of the invention were tested against the wild-type and four mutant HIV reverse transcriptases. The results are listed in Table 1 as EC50 (nM) and IC50 (nM). In the Table, A represents <50 nM, B is between 50 and 100 nM, and C is >100 nM. ND is not determined.

Test [3] addresses mutant HIV reverse transcriptases (Human immunodeficiency virus type 1, UniProt P12497, Y768C, cells depend on it). The test is classed as cell-based.
Test [4] addresses mutant HIV reverse transcriptases (Human immunodeficiency virus type 1, UniProt P12497, Y775L, cells depend on it). The test is classed as cell-based.
The mark [5] stands for this setting: Human immunodeficiency virus 1, Hela-JC53, read-out: EC50 WT.
The mark [6] stands for this setting: read-out: EC50 WT, wild-type (WT) HIV-1.
Where [7] appears, read: read-out: IC50 WT RT, wild-type (WT) RT.

With `Cc1ccc(-n2c(SCC(=O)Nc3ccc(C(=O)O)cc3Cl)nnc2C(F)F)c2c1CCCC2` [compound 2], the half-maximal effective concentration (EC50) in test [1] (setting [5]), in test [3] and in test [4] was less than 50 nM throughout. The IC50 (in general, the midpoint of a concentration-inhibition curve) in test [2] is less than 50 nM.

Turning to `CCc1ccc(-n2c(SCC(=O)Nc3ccc(C(=O)O)cc3C)nnc2C(F)F)c2ccccc12` [compound 3], the EC50 (as a rule, the midpoint of the concentration-response curve) in test [1] (setting [5]) is less than 50 nM; in test [3], 50 to 100 nM; in test [4] it was more than 100 nM. In addition, in test [2], the IC50 is less than 50 nM.

`CCc1ccc(-n2c(SCC(=O)Nc3ccc(C(=O)O)cc3Cl)nnc2C(F)F)c2ccccc12` [compound 4]: the EC50 in test [1] (setting [5]), in test [3] and in test [4] was less than 50 nM in each case. For the same compound, in test [2], the IC50 is less than 50 nM.

As for `Cc1cc(C(=O)O)ccc1NC(=O)CSc1nnc(C(F)F)n1-c1ccc(C)c2c1CCCC2` [compound 5], the EC50 is less than 50 nM in test [1] (setting [5]), more than 100 nM in test [3] and more than 100 nM in test [4]. Also, in test [2], the IC50 was less than 50 nM.

Consider `CCc1ccc(-n2c(Br)nnc2SCC(=O)Nc2ccc(C(=O)O)cc2C)c2ccccc12` [compound 6], for which the concentration for a half-maximal effect (EC50) was less than 50 nM in test [1] (setting [5]), less than 50 nM in test [3] and more than 100 nM in test [4]. For the same compound, the IC50 in test [2] was less than 50 nM.

Regarding `CCc1ccc(-n2c(Br)nnc2SCC(=O)Nc2ccc(C(=O)O)cc2Cl)c2ccccc12` [compound 8], the EC50 in test [1] (setting [5]), in test [3] and in test [4] was less than 50 nM in each case. This compound came in with an IC50 in test [2] of less than 50 nM.

Take `CCc1ccc(-n2c(Br)nnc2SCC(=O)Nc2ccc(C(=O)O)cc2Cl)c2ccccc12` [compound 9]: the EC50 in test [1] (setting [6]) and in test [3] was less than 50 nM each time.

Turning to `O=C(CSc1nnc(Br)n1-c1ccc(C2CC2)c2ccccc12)Nc1ccc(C(=O)O)cc1Cl` [compound 10], the 50% effective concentration (EC50) in test [1] (setting [5]), in test [3] and in test [4] was less than 50 nM in each case. The same compound yielded an IC50 in test [2] of less than 50 nM.

In the case of `O=C(CSc1nnc(Br)n1-c1ccc(C2CC2)c2ccccc12)Nc1ccc(C(=O)O)cc1Cl` [compound 11], the EC50 in test [1] (setting [6]), in test [3] and in test [4] was less than 50 nM each time. In addition, the half-inhibitory concentration (IC50) in test [2] (setting [7]) was less than 50 nM.

As to `O=C(CSc1nnc(Br)n1-c1ccc(C2CC2)c2ccccc12)Nc1ccc(C(=O)O)cc1Cl` [compound 12], the EC50 in test [1] (setting [6]), in test [3] and in test [4] was less than 50 nM each time. In addition, the IC50 in test [2] (setting [7]) is less than 50 nM.

With `COc1ccc2cccc(-n3c(Br)nnc3SCC(=O)Nc3ccc(C(=O)O)cc3Cl)c2c1` [compound 13], the EC50 in test [1] (setting [5]), in test [3] and in test [4] was less than 50 nM each time. The compound also showed an IC50 in test [2] of less than 50 nM.

Take `O=C(CSc1nnc(C(F)F)n1-c1ccc(C2CC2)c2ccccc12)Nc1ccc(C(=O)O)cc1Cl` [compound 14]: the EC50 in test [1] (setting [5]), in test [3] and in test [4] was less than 50 nM in each case. In test [2], this compound came in with an IC50 of less than 50 nM.

For the compound `Cc1cc(C2CC2)c2ccccc2c1-n1c(Br)nnc1SCC(=O)Nc1ccc(S(=O)(=O)O)cc1Cl` [compound 15], the concentration for a half-maximal effect (EC50) in test [1] (setting [5]) is less than 50 nM; in test [3] it was 50 to 100 nM; in test [4], more than 100 nM. In test [2], this compound gave an IC50 of less than 50 nM.

On to `COc1ccc2c(C)ccc(-n3c(Br)nnc3SCC(=O)Nc3ccc(C(=O)O)cc3Cl)c2c1` [compound 18], for which the EC50 in test [3] and in test [4] was less than 50 nM throughout.

As for `Cc1cc(C2CC2)cc(Cl)c1-n1c(Br)nnc1SCC(=O)Nc1ccc(C(=O)O)cc1Cl` [compound 28], the concentration for a half-maximal effect (EC50) in test [3] and in test [4] was less than 50 nM each time.

`COc1ccc2c(C3CC3)ccc(-n3c(Br)nnc3SCC(=O)Nc3ccc(C(=O)O)cc3Cl)c2c1` [compound 34]: the EC50 in test [1] (setting [5]), in test [3] and in test [4] was less than 50 nM in each case.

Take `Cc1cc(C(=O)O)ccc1NC(=O)CSc1nnc(Br)n1-c1ccc(C2CC2)c2ccccc12` [compound 35]: the EC50 in test [1] (setting [5]) is less than 50 nM. Besides, the IC50 in test [2] is less than 50 nM.

Consider `NS(=O)(=O)c1ccc(NC(=O)CSc2nnc(Br)n2-c2ccc(C3CC3)c3ccccc23)c(Cl)c1` [compound 39], for which the EC50 in test [1] (setting [6]), in test [3] and in test [4] was less than 50 nM each time.

For the compound `NS(=O)(=O)c1ccc(NC(=O)CSc2nnc(Br)n2-c2ccc(C3CC3)c3ccccc23)c(Cl)c1` [compound 42], the EC50 in test [1] (setting [6]), in test [3] and in test [4] was less than 50 nM in each case.

Turning to `Cc1cc(C)c2ccccc2c1-n1c(CF)nnc1SCC(=O)Nc1ccc(S(N)(=O)=O)cc1Cl` [compound 53], the 50% effective concentration (EC50) in test [1] (setting [5]), in test [3] and in test [4] was less than 50 nM each time.

Take `CC(Sc1nnc(Br)n1-c1ccc(C2CC2)c2ccccc12)C(=O)Nc1ccc(S(N)(=O)=O)cc1Cl` (stereo not drawn) [compound 76]: the results for the EC50 in test [3] and in test [4] were 50 to 100 nM and more than 100 nM, respectively.

`NS(=O)(=O)c1ccc(NC(=O)CSc2nnc(Br)n2-c2ccc(C3CC3)c3ccccc23)c(Cl)c1` [compound 77]: the EC50 in test [1] (setting [5]) was less than 50 nM; in test [3], 50 to 100 nM; in test [4], more than 100 nM.

Regarding `NS(=O)(=O)c1ccc(NC(=O)CSc2nnc(Br)n2-c2ccc(C3CC3)cc2)c(Cl)c1` [compound 78], the EC50 is less than 50 nM in test [3] and more than 100 nM in test [4].

As to `CCc1ccc(-n2c(Br)nnc2SCC(=O)Nc2ccc(S(N)(=O)=O)cc2Cl)c2c1CCCC2` [compound 79], the EC50 in test [1] (setting [5]), in test [3] and in test [4] was less than 50 nM each time.

For the compound `Cc1cc(S(N)(=O)=O)ccc1NC(=O)CSc1nnc(Br)n1-c1ccc(C)c2c1CCCC2` [compound 80], the EC50 in test [1] (setting [5]), in test [3] and in test [4] was less than 50 nM in each case.

For `Cc1ccc2c(C)ccc(-n3c(Br)nnc3SCC(=O)Nc3ccc(S(N)(=O)=O)cc3Br)c2c1` [compound 81], the half-maximal effective concentration (EC50) in test [1] (setting [5]), in test [3] and in test [4] was less than 50 nM throughout.

Regarding `Cc1cc(C)c2ccccc2c1-n1c(CF)nnc1SCC(=O)Nc1ccc(S(N)(=O)=O)cc1Cl` [compound 82], the EC50 in test [1] (setting [6]) and in test [3] was less than 50 nM each time.

For the compound `CCCc1ccc(-n2c(Br)nnc2SCC(=O)Nc2ccc(S(N)(=O)=O)cc2Cl)c2ccccc12` [compound 85], the EC50 in test [1] (setting [5]), in test [3] and in test [4] was less than 50 nM each time.

With `CCCc1ccc(-n2c(Br)nnc2SCC(=O)Nc2ccc(S(N)(=O)=O)cc2C)c2ccccc12` [compound 86], the EC50 in test [1] (setting [5]), in test [3] and in test [4] was less than 50 nM each time.

For `CCc1ccc(-n2c(Br)nnc2SCC(=O)Nc2ccc(S(N)(=O)=O)cc2Cl)c2ccccc12` [compound 87], the EC50 in test [1] (setting [5]), in test [3] and in test [4] was less than 50 nM throughout.

Turning to `Cc1cc(C2CC2)ccc1-n1c(Br)nnc1SCC(=O)Nc1ccc(S(N)(=O)=O)cc1Cl` [compound 88], the concentration giving a half-maximal response (EC50) in test [1] (setting [5]), in test [3] and in test [4] was less than 50 nM each time.

On to `NS(=O)(=O)c1ccc(NC(=O)CSc2nnc(Cl)n2-c2ccc(C3CC3)c3ccccc23)c(Cl)c1` [compound 89], for which the EC50 in test [1] (setting [5]), in test [3] and in test [4] was less than 50 nM in each case.

Regarding `NS(=O)(=O)c1ccc(NC(=O)CSc2nnc(Br)n2-c2ccc(C3CC3)cc2OC(F)(F)F)c(Cl)c1` [compound 90], the results for the EC50 in test [3] and in test [4] were less than 50 nM and 50 to 100 nM, respectively.

`NS(=O)(=O)c1ccc(NC(=O)CSc2nnc(Br)n2-c2c(Cl)cc(C3CCC3)c3ccccc23)c(Cl)c1` [compound 91]: the EC50 in test [1] (setting [5]), in test [3] and in test [4] was less than 50 nM each time.

Turning to `Cc1cc(C2CC2)cc(Cl)c1-n1c(Br)nnc1SCC(=O)Nc1ccc(S(N)(=O)=O)cc1Cl` [compound 93], the EC50 in test [3] and in test [4] was less than 50 nM throughout.

As for `Cc1cc(S(N)(=O)=O)ccc1NC(=O)CSc1nnc(Br)n1-c1ccc(C2CCC2)c2ccccc12` [compound 94], the EC50 in test [3] and in test [4] was less than 50 nM in each case.

As for `NS(=O)(=O)c1ccc(NC(=O)CSc2nnc(Br)n2-c2ccc(C3CCC3)c3ccccc23)c(Cl)c1` [compound 95], the EC50 in test [1] (setting [5]), in test [3] and in test [4] was less than 50 nM throughout.

As to `N#Cc1cccc2c(-n3c(SCC(=O)Nc4ccc(S(N)(=O)=O)cc4Cl)nnc3C(F)F)cccc12` [compound 96], the figures for the EC50 in test [3] and in test [4] were less than 50 nM and more than 100 nM, respectively.

Consider `Cc1ccc2ccccc2c1-n1c(Br)nnc1SC(C)C(=O)Nc1ccc(S(N)(=O)=O)cc1Cl` (stereo not drawn) [compound 141], for which the EC50 in test [1] (setting [5]) was less than 50 nM. Besides, the IC50 in test [2] was less than 50 nM.
